Results reported in US11331290B2, “Niclosamide for the treatment of cancer metastasis” (Max-Delbrück-Centrum für Molekulare Medizin in der …, priority 2011, dated 2022).

Tests used:
[1] = humans, taken orally; cited from earlier work
[2] = tested on: DLD-1 cells; experiment: Boyden chamber transwell migration assay; type: cell-based, human; settings: 1 μM, 24 h
Method: (§1) HCT116, SW620, LS174T, SW480 and DLD-1 cells were used in cell migration and invasion analysis performed with Boyden chamber assay. 400 μL containing 2.5×10^5 cells were seeded into each transwell chamber with filter membranes of 12.0 μm pore size (Millipore, Schwalbach, Germany). For invasion filter membranes were coated with 50 μL Matrigel (diluted 1:3 in RPMI-1640; BD Biosciences) 10 minutes before cells were seeded. Fresh medium (600 μL) were added to the bottom chamber and cells were allowed to attach to the insets for 15 hours. Both chambers were treated with 1 μM niclosamide or the respective amount of DMSO and incubated at 37° C. and 5% CO2 in a humidified incubator for 24 hours. Afterwards insets were removed and cells that had migrated through the membrane to the lower chamber were trypsinized and counted in a Neubauer chamber (LO-Laboroptik, Bad Homburg, Germany). Each well was counted ten times. Each migration or invasion experiment was performed in duplicate. The average number of migrated or invaded cells was determined for at least three independent experiments.
(§2) (A) S100A4 expression under niclosamide treatment. Cells were treated with 1 μM niclosamide for 24 hours. S100A4 expression was analyzed with qRT-PCR and immunoblot. (B) Cell migration under niclosamide treatment. Migration rates of cells treated with 1 μM niclosamide for 24 hours were determined in a Boyden chamber assay values were normalized to solvent-treated SW620 cells. (C) Cell invasion under niclosamide treatment. Cells were seeded onto Matrigel covered transwells and treated with 1 μM niclosamide for 24 hours. Invaded cells in the lower chamber were counted and normalized to solvent-treated SW620 cells. Differences in solvent vs. niclosamide-treated cells were analyzed by Student's t test. Data represent mean±SE of at least two independent experiments each performed in triplicate. (D) Directed migration under niclosamide treatment. Wounds of 300 μM width were set in a 60% confluent monolayer of cells on day 1. Cells were treated daily with 1 μM niclosamide for 4 days. Microphotographs of day 4 are presented here with black lines indicating margins of the wound on day 1; scale bar represents 200 μM. Directed migration data shown are representatives of three independent experiments. (E) Adhesive cell proliferation under niclosamide treatment. Cells were treated daily with 1 μM niclosamide. The amount of viable cells per well was determined by MTT assay. (F) Anchorage-independent cell growth under niclosamide treatment. Cells were plated as single cells into 0.33% (w/v) agarose and treatment (solvent or 1 μM niclosamide) containing medium. After 7 days colonies were visualized by light microscopy at 10× (overview) and 40× (single colony) magnification. (G) Quantification of colonies formed. Number of colonies (of more than 4 cells) was counted and normalized to solvent-treated SW620 cells. Differences in solvent vs. niclosamide-treated cells were analyzed by Student's t test. Data represent mean mean±SE of at least two independent experiments each performed in duplicates.

[3] = tested on: SW620 cells; experiment: Boyden chamber transwell migration assay; type: cell-based, human; settings: 1 μM, 24 h
Method: as §1, §2

[4] = tested on: SW480 cells; experiment: Boyden chamber transwell migration assay; type: cell-based, human; settings: 1 μM, 24 h
Method: as §1, §2

[5] = tested on: LS174T cells; experiment: Boyden chamber transwell migration assay; type: cell-based, human; settings: 1 μM, 24 h
Method: as §1, §2

[6] = tested on: HCT116-S100A4 cells; experiment: Boyden chamber invasion assay (Matrigel); type: cell-based, human; settings: 1 μM, 24 h, statistically not significant
Method: as §1
(§3) (A) Cell migration of HCT116-vector and HCT116-S100A4 cells exposed to niclosamide treatment. Cells were treated with 1 μM niclosamide for 24 hours and migration rates were measured with Boyden chamber assay. (B) Cell invasion of HCT116-vector and HCT116-S100A4 cells exposed to niclosamide treatment. Cells were treated with 1 μM niclosamide for 24 hours and cell invasion was determined by Boyden chamber assay. (C) Directed migration of HCT116-vector and HCT116-S100A4 cells exposed to niclosamide treatment analyzed by wound healing assay. Wounds of 300 μM width were set in a 60% confluent monolayer of HCT116-vector or HCT116-S100A4 cells on day 1. Cells were treated daily with 1 μM niclosamide for 4 days. Microphotographs of day 4 are presented here with black lines indicating margins of entered wound of day 1; scale bar represents 200 μM. Data represents three independent experiments. (D) Adhesive cell proliferation of HCT116-vector and HCT116-S100A4 cells exposed to niclosamide treatment. Cells were treated daily with 1 μM niclosamide and cell viability was determined with MTT assay. (E) Anchorage-independent cell growth of HCT116-vector and HCT116-S100A4 cells exposed to niclosamide treatment. Cells were plated as single cells into 0.33% (w/v) agarose and treatment (solvent or 1 μM niclosamide) containing medium. After 7 days colonies were visualized by light microscopy at 10× (overview) and 40× (single colony) magnification. (F) Quantification of colonies formed. Number of colonies (of more than 4 cells) was counted and normalized to solvent-treated HCT116-vector cells. Differences of niclosamide vs. solvent-treated cells were analyzed by Student's t test. […]

[7] = tested on: HCT116-vector cells; experiment: Boyden chamber invasion assay (Matrigel); type: cell-based, human; settings: 24 h
Method: as §1, §3

[8] = tested on: SW620, LS174T, SW480 and DLD-1 cells; experiment: Wound healing assay (directed migration); type: cell-based, human; settings: 1 μM daily, 4 days, vs respective solvent-treated control
Method: For wound healing assay HCT116, SW620, LS174T, SW480 and DLD-1 cells were grown to form 60% confluent monolayers of cells in which a wound of about 300 μm width was inflicted with a sterile pipette tip. The medium was exchanged to remove non-adherent cells and the wounded monolayer was treated with 1 μM niclosamide or the respective amount of DMSO every 24 hours for 4 consecutive days. The progress of wound closure was monitored with microphotographs of 10× magnification taken with the Leica DM IL light microscope (Leica Microsystems) on day 0 and day 4. The wound healing experiment was performed three independent times.
(A) S100A4 expression under niclosamide treatment. […] S100A4 expression was analyzed with qRT-PCR and immunoblot. […] Migration rates of cells treated with 1 μM niclosamide for 24 hours were determined in a Boyden chamber assay values were normalized to solvent-treated SW620 cells. […] Invaded cells in the lower chamber were counted and normalized to solvent-treated SW620 cells. Differences in solvent vs. niclosamide-treated cells were analyzed by Student's t test. […] The amount of viable cells per well was determined by MTT assay. […] (G) Quantification of colonies formed. Number of colonies (of more than 4 cells) was counted and normalized to solvent-treated SW620 cells. Differences in solvent vs. niclosamide-treated cells were analyzed by Student's t test. […]

Q: With O=C(Nc1ccc([N+](=O)[O-])cc1Cl)c1cc(Cl)ccc1O [niclosamide, 2′,5-dichloro-4′-nitrosalicylanilide] as the molecule, how does the side effects [1] read?
A: only slight side effects

Q: What about the cell migration rate [2] of the same molecule?
A: not further affected

Q: What about the “migration, mean difference control vs niclosamide” value (shortened to “migration, mean difference control”) [3] of the same molecule?
A: 52.1%

Q: And the “cell migration rate, mean % (normalized to solvent-treated SW620 cells)” value ([3]; solvent control 100.0%)?
A: 47.9%

Q: And the “migration, mean difference control” value [4]?
A: 11.1%

Q: What about the “cell migration rate, mean % (normalized to solvent-treated SW620 cells)” value ([4]; solvent control 21.7%) of the same molecule?
A: 10.6%

Q: And the “migration, mean difference control” value [5]?
A: 41.3%

Q: What about the “cell migration rate, mean % (normalized to solvent-treated SW620 cells)” value ([5]; solvent control 68.2%) of the same molecule?
A: 26.8%

Q: And the “invasion rate, mean %” value ([6]; solvent control 111.4%)?
A: 122.5%

Q: And the “invasion, mean difference control vs niclosamide” value [6]?
A: −11.1%

Q: What about the “invasion, mean difference control vs niclosamide” value ([7]; 1 μM) of the same molecule?
A: 69.9%

Q: And the activity at 1 µM ([7]; Homo sapiens, read-out: number of invaded cells, mean % of control)?
A: 30.1%

Q: And the “directed migration (wound healing)” value [8]?
A: impaired
